Results published in BindingDB's records for patent US20240025892 (The General Hospital, 2024).

Molecular target: Serine/threonine-protein kinase SIK2 (Homo sapiens, UniProt Q9H0K1)
Test: In Vitro SIK2 Kinase Assay
Procedure: Assays were performed in base reaction buffer (20 mM Hepes (pH 7.5), 10 mM MgCl2, 1 mM EGTA, 0.02% Brij35, 0.02 mg/mL BSA, 0.1 mM Na3VO4, 2 mM DTT, 1% DMSO). Compounds were dissolved in 100% DMSO in a 10 mM stock. Serial dilution was conducted by Integra Viaflo Assist in DMSO. […] The substrate used was pAMARA at a concentration of 0.2 mg/mL. Kinase assays were supplemented with 2 mM Mn2+, and 1 μM ATP was added. Assays were performed for 20 minutes at room temperature, after which time 33P-ATP (10 μCi/μL) was added followed by incubation for another 120 minutes at room temperature. Thereafter, radioactivity incorporated into the […] peptide substrate was detected by filter-binding method. Kinase activity data were expressed as the percent remaining kinase activity in test samples compared to DMSO reactions. IC50 values and curve fits were obtained using Prism (GraphPad Software).

Serine/threonine-protein kinase SIK2, sequence (Q9H0K1 whole entry): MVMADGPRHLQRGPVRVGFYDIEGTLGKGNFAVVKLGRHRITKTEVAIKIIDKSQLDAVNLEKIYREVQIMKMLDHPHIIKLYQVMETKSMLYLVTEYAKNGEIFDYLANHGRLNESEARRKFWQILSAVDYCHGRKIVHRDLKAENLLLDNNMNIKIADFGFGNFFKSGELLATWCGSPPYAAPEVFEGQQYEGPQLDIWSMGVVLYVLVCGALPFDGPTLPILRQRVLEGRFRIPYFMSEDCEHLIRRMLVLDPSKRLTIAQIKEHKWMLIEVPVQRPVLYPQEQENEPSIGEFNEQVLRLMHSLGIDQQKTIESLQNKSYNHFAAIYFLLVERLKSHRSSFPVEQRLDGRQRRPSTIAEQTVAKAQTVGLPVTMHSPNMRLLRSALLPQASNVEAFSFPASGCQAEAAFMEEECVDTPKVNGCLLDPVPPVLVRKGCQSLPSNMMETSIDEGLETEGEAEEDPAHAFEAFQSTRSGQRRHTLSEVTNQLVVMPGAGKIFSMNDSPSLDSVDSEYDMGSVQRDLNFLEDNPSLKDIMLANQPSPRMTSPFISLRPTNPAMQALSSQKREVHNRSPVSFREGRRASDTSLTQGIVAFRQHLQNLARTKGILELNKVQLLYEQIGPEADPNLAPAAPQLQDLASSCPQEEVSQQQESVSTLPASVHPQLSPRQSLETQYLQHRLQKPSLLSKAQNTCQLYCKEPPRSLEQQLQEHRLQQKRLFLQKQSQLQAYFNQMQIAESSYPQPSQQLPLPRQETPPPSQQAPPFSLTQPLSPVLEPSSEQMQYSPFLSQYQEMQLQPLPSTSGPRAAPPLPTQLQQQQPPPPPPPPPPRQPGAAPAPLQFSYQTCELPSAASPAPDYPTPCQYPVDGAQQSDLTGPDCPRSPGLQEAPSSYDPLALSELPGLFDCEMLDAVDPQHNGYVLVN

## N#Cc1ccc(-n2cnc3cc(C(=O)NCc4cccnc4)ccc32)cc1 [US20240025892, Example 32]
  IC50: 148 nM
